From US20230019280A1, “SUBSTITUTED ISOINDOLONYL 2,2'-BIP[…], ANALOGUES THEREOF, AND METHODS USING SAME” (priority 2019, published 2023)

System: HBsAg
Experiment: HBsAg assay (inhibition of HBsAg in HepG2.2.15 cells)
Assay type: cell-based, hepatitis B virus
Conditions: Hepatitis B virus, HepG2.2.15, 144 h, read-out: sAg EC50, HepG2.2.15 cells; supernatant HBsAg by CLIA at day 6 after exposure of compounds
Experimental: Inhibition of HBsAg was determined in HepG2.2.15 cells. Cells were maintained in culture medium containing 10% fetal calf serum, […], Glutamine, penicillin/streptomycin. Cells were seeded in 96-well collagen-coated plate at a density of 30,000 cells/well. Serially diluted compounds were added to cells next day at the final DMSO concentration of 0.5%. Cells were incubated with compounds for 2-3 days, after which medium was removed. Fresh medium containing compounds was added to cells for additional 3-4 days. At day 6 after exposure of compounds, supernatant was collected, the HBsAg immunoassay (microplate-based chemiluminescence immunoassay kits, CLIA, Autobio Diagnosics Co., Zhengzhou, China, Catalog #CL0310-2) was used to determine the level of HBsAg according to manufactory instruction. Dose-response curves were generated and the EC50 value (effective concentrations that achieved 50% inhibitory effect) were determined using XLfit software. In addition, cells were seeded at a density of 5,000 cells/well for determination of cell viability in the presence and absence of compounds by using CellTiter-Glo reagent (Promega).

| Structure (SMILES) | EC50 [nM] |
| --- | --- |
| COc1cc2c(cc1OC)C(c1sccc1C)N(c1ccnc(-c3ncccn3)n1)C2=O (stereo not drawn) [Example 27, 2-([2,2′-Bipyrimidin]-4-yl)-5,6-dimethoxy-3-(3-methylthiophen-2-yl)isoindo-lin-1-one] | 1 |

Same assay, conditions: read-out: sAg EC50; HepG2.2.15 cells; supernatant HBsAg by CLIA at day 6 after exposure of compounds

| Structure (SMILES) | EC50 [nM] |
| --- | --- |
| CCC1c2cc(OC)c(Cl)cc2C(=O)N1c1ccnc(-c2ncccn2)n1 (single isomer, unassigned) [Example 6, 2-([2,2′-Bipyrimidin]-4-yl)-6-chloro-3-ethyl-5-methoxyisoindolin-1-one] | 14 |
| COc1cc2c(cc1OC)C(CC(C)C)N(c1ccnc(-c3ncccn3)n1)C2=O (single isomer, unassigned) [Example 41, 2-([2,2′-Bipyrimidin]-4-yl)-3-isobutyl-5,6-dimethoxyisoindolin-1-one] | 1000 |
| COc1cc2c(cc1OC)C(c1ccccn1)N(c1ccnc(-c3ncccn3)n1)C2=O (single isomer, unassigned) [Example 22, 2-([2,2′-Bipyrimidin]-4-yl)-5,6-dimethoxy-3-(pyridin-2-yl)isoindolin-1-one] | 4 |
| COc1cccc(C2c3cc(OC)c(OC)cc3C(=O)N2c2ccnc(-c3ncccn3)n2)c1 (single isomer, unassigned) [Example 13, 2-([2,2′-Bipyrimidin]-4-yl)-5,6-dimethoxy-3-(3-methoxyphenyl)isoindolin-1-one] | 1000 |
| CCC1c2cc(OC)c(C)cc2C(=O)N1c1ccnc(-c2ncccn2)n1 (single isomer, unassigned) [Example 4, 2-([2,2′-Bipyrimidin]-4-yl)-3-ethyl-5-methoxy-6-methylisoindolin-1-one] | 8 |
| CCC1c2cc(OC)c(OC)cc2C(=O)N1c1cc(F)nc(-c2ncccn2)n1 (single isomer, unassigned) [Example 68, 3-Ethyl-2-(6-fluoro-[2,2′-bipyrimidin]-4-yl)-5,6-dimethoxyisoindolin-1-one] | 1000 |
| COc1ccc(C2c3cc(OC)c(OC)cc3C(=O)N2c2ccnc(-c3ncccn3)n2)cc1 (single isomer, unassigned) [Example 10, 2-([2,2′-Bipyrimidin]-4-yl)-5,6-dimethoxy-3-(4-methoxyphenyl)isoindolin-1-one] | 13 |
| CCC1c2cc(F)c(OC)cc2C(=O)N1c1ccnc(-c2ncccn2)n1 (single isomer, unassigned) [Example 49, 3-Ethyl-5-fluoro-6-methoxy-2-(2-pyrimidin-2-ylpyrimidin-4-yl)isoindolin-1-one] | 10 |
